Experimental findings from ChEMBL document CHEMBL4842344, “Design, synthesis and biological activity evaluation of novel scopoletin-NO donor derivatives against MCF-7 human breast cancer in vitro and in vivo” (Eur J Med Chem, 2021) are described below.

The source made the active and inactive calls. The calls are words filed in the database; no cut-off is given here.

Data set [1] concerns MCF7. The experiment in a line: Induction of cell cycle arrest in human MCF7 cells assessed as accumulation of cells in G1 phase at 1 uM measured after 24 hrs by propidium iodide staining based flow cytometry analysis (Rvb= 54.96%). The data set is classed as functional. (A flow cytometer gives signals particle by particle.)
Data set [2] deals with MCF7. The experiment in a line: Induction of cell cycle arrest in human MCF7 cells assessed as accumulation of cells in G1 phase at 0.25 uM measured after 24 hrs by propidium iodide staining based flow cytometry analysis (Rvb= 54.96%). The data set is classed as functional.
In data set [3] the test system is MCF7. The experiment in a line: Induction of apoptosis in human MCF7 cells assessed as early apoptotic cells at 0.5 uM measured after 24 hrs by Annexin-V FITC/PI staining based flow cytometry analysis (Rvb= 1.33%). In kind it is functional.
Data set [4] relates to MCF7. The experiment in a line: Induction of apoptosis in human MCF7 cells assessed as dead cells at 1 uM measured after 24 hrs by Annexin-V FITC/PI staining based flow cytometry analysis (Rvb= 0.06%). In kind it is functional.
For data set [5], the system named is MCF7. In words: Inhibition of PI3K/AKT signalling pathway in human MCF7 cells assessed as reduction in PI3K expression at 0.5 to 2 uM measured after 24 hrs by western blot analysis. The data set is classed as cell-based. Conditions: dose 0.5-2 µM. (In general: A western blot detects proteins with antibodies after separation by electrophoresis.)
In a further data set the test system is MCF-10A. The experiment in a line: Cytotoxicity against human MCF-10A cells assessed as reduction in cell viability measured after 48 hrs by MTT assay. The data set is classed as cell-based. Background: Tetrazolium assays rely on reduction of a dye to a coloured formazan, in cell work by metabolically active cells.
Data set [6] deals with MCF7. In words: Induction of cell cycle arrest in human MCF7 cells assessed as accumulation of cells in G2 phase at 0.5 uM measured after 24 hrs by propidium iodide staining based flow cytometry analysis (Rvb= 18.5%). In kind it is functional.
The test system of data set [7] is MCF7. In words: Induction of apoptosis in human MCF7 cells assessed as live cells at 0.5 uM measured after 24 hrs by Annexin-V FITC/PI staining based flow cytometry analysis (Rvb= 93.0%). The data set is classed as functional.
Data set [8] concerns MCF7. The experiment in a line: Induction of apoptosis in human MCF7 cells assessed as increase in cleavage of PARP-1 at 0.5 to 2 uM measured after 24 hrs by western blot analysis. In kind it is functional, cell-based. The settings on record: dose 0.5-2 µM.
Data set [9] has as its system MCF7. The experiment in a line: Antiproliferative activity against human MCF7 cells assessed as inhibition of cell proliferation at 2 uM pretreated with hemoglobin NO scavenger for 2 hrs followed by addition of compound and measured after 48 hrs by MTT assay. In kind it is functional, cell-based.
The subject of data set [10] is MCF7. The experiment in a line: Induction of cell cycle arrest in human MCF7 cells assessed as accumulation of cells in sub G1 phase at 0.25 to 1 uM measured after 24 hrs by propidium iodide staining based flow cytometry analysis (Rvb= 21.1%). Conditions: dose 0.25-1 µM. In kind it is functional.
Data set [11] has as its system MCF7. In words: Inhibition of PI3K/AKT signalling pathway in human MCF7 cells assessed as reduction in phosphorylated AKT expression measured after 24 hrs by western blot analysis. In kind it is cell-based. The settings on record: dose 0.5-2 µM.
The test system of data set [12] is MCF7. The experiment in a line: Antitumor activity against human MCF7 cells xenografted in BALB/c nude mouse assessed as tumor growth inhibition at 60 mg/kg, ip administered once every 2 days for 21 consecutive days relative to control. In kind it is functional. The settings on record: 504 h, time 21 day, read-out: TGI.
A short description of data set [13]: Toxicity in BALB/c mouse xenografted with human MCF7 cells assessed as effect on lung at 30 to 60 mg/kg, ip measured after 21 days by hematoxylin and eosin staining based histopathological analysis. The data set is classed as organism-based. Conditions: in vivo, 504 h, dose 30-60 mg/kg, time 21 day.

As usually defined, the IC50 is the concentration needed to halve the response being measured. Turning to `COc1cc2cc(C(=O)NCc3ccc(F)cc3)c(=O)oc2cc1OCCCOc1no[n+]([O-])c1S(=O)(=O)c1ccccc1`, the Activity was found to be 36.65% with MCF7 [1]; 52.88% in the data set on MCF7 [2]; 7.49% with MCF7 [3]; 1.41% with MCF7 [4]; 38.44% in the data set on MCF7 [6]; 83.1% in the data set with MCF7 [7]. Besides, the Activity in the data set with MCF7 [10] is listed as 50%; in data set [13], “Non-Toxic”. Further, the inhibition result with MCF7 [5] was “inactive”. Further, the half-maximal inhibitory concentration (IC50) in the data set with MCF-10A is 8.46 µM. The outcome with MCF7 [8] was Active. In the data set on MCF7 [9], the outcome was inactive. Moreover, the inhibition entry with MCF7 [11] is “Dose-Dependent Effect”. The inhibition in vivo at 60 mg/kg with MCF7 [12] was determined as 75.2%.
